Test results reported in EP4603105A1, “PHARMACEUTICAL COMPOSITION CONTAINING CYCLIC COMPOUND HAVING SELECTIVE KRAS INHIBITORY EFFECT AGAINST HRAS AND NRAS” (CHUGAI SEIYAKU KABUSHIKI KAISHA, priority 2022, dated 2024).
Where two headings read alike, the source gives them in different places. Where a SMILES comes first, the peptide text is derived from it. Bridges are numbered along the chain shown (N, C = ends). [ ]: non-standard residue; d: D form. The star is where a group is joined. hPhe(3-Cl-4-CF3) = N[C@@H](CCc1ccc(C(F)(F)F)c(Cl)c1)C(=O)O; NPrPhe(4-CF3) = CCCN[C@@H](Cc1ccc(C(F)(F)F)cc1)C(=O)O; NEtPhe(4-Me) = CCN[C@@H](Cc1ccc(C)cc1)C(=O)O; NMePhe(4-Me) = CN[C@@H](Cc1ccc(C)cc1)C(=O)O; NMeGly(cPent) = CN[C@H](C(=O)O)C1CCCC1; Hyp = O=C(O)[C@@H]1C[C@@H](O)CN1; NMeD = CN[C@@H](CC(=O)O)C(=O)O; NMeL = CN[C@@H](CC(C)C)C(=O)O; Morpholide = C1CN(*)CCO1; NMeA = CN[C@@H](C)C(=O)O; Ac5c = NC1(C(=O)O)CCCC1; Aze = O=C(O)[C@@H]1CCN1; NPrGly = CCCNCC(=O)O; Sar = CNCC(=O)O

What was measured:
[1] = target: GDP-bound NRAS wild-type protein (Homo sapiens, UniProt P01111); assay: Binding to NRAS by surface plasmon resonance (SPR), KD and KD ratio to KRAS
Method in brief: (§1)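 Single-cycle kinetics on GDP-loaded biotin-Avi RAS captured to ~100–300 RU; 75 s ascending injections, 100 µL/min, 30°C. HBS pH 7.4 + 10 mM MgCl2/10 µM GDP/4% DMSO. 1:1 fit, KD.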

[2] = system: human lung cancer strain NCI-H441; type: cell-based
Method in brief: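 Proliferation was scored by […] measured after the reagent was added to cultures kept at 37°C in 5% carbon dioxide.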

HRAS wild-type protein = HRAS wild-type protein (Homo sapiens, UniProt P01112); assay: Binding to HRAS by surface plasmon resonance (SPR), KD and KD ratio to KRAS
Method in brief: as §1

[3] = ratio of the KD value with respect to GDP-bound NRAS wild-type protein to the KD value with respect to KRAS
[4] = ratio of the KD value with respect to HRAS wild-type protein to the KD value with respect to KRAS
[5] = ratio of KD for GDP-bound NRAS wild-type protein to KD for KRAS
[6] = ratio of KD for HRAS wild-type protein to KD for KRAS
[7] = ratio of KD value for GDP-bound NRAS wild-type protein to KD value for KRAS (SPR)
[8] = ratio of KD value for HRAS wild-type protein to KD value for KRAS (SPR)

HRAS wild-type protein, sequence (P01112 whole entry): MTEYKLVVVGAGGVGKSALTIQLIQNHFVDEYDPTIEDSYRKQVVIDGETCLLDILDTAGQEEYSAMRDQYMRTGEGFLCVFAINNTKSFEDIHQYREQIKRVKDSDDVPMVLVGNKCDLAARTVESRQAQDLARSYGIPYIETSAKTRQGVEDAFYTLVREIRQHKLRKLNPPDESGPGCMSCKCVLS
GDP-bound NRAS wild-type protein, sequence (P01111 whole entry): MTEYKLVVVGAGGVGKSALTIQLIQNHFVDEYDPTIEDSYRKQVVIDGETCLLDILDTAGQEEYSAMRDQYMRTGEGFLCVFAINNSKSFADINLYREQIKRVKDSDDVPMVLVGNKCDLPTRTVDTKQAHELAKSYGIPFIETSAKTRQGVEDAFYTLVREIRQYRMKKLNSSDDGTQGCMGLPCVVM

IC50 [2] | Compound | NRAS /KRAS [1, 5] | HRAS /KRAS (HRAS wild-type protein; [6]) | further results
8.9 nM | CCO[C@@H]1C[C@H]2C(=O)NC3(CC(C)(C)C3)C(=O)N(C)[C@@H](C(CC)CC)C(=O)N(C)[C@H](C(=O)N(C)C)CC(=O)N(C)[C@@H](CC3CC3)C(=O)N[C@@H]([C@@H](C)CC)C(=O)N(C)CC(=O)N(C)[C@H]3C/C=C\CCN(C3=O)[C@@H](Cc3ccc(C(F)(F)F)cc3)C(=O)N(C)CC(=O)N[C@@H](CCc3cc(F)c(C(F)(F)F)c(F)c3)C(=O)N2C1 [PP2119] | – | – | NRAS /KRAS [1, 3]: A (a compound having 10 or more and less than 20 is denoted as A); HRAS /KRAS (HRAS wild-type protein; [4]): B (a compound having 3 or more and less than 10 is denoted as B)
9.9 nM | CCCN1CC(=O)N(C)[C@@H](Cc2ccc(C)cc2)C(=O)N(C)CC(=O)N[C@@H](CCc2ccc(C(F)(F)F)c(Cl)c2)C(=O)N2CCC[C@H]2C(=O)NC2(CCCC2)C(=O)N(C)[C@@H](C2CCCC2)C(=O)N(C)[C@H](C(=O)N2CCOCC2)CC(=O)N(C)[C@@H](CC(C)C)C(=O)N[C@@H]([C@@H](C)CC)C(=O)N(C)CC1=O [PP0020] ([NMeL]I[Sar][NPrGly][NMePhe(4-Me)][Sar][hPhe(3-Cl-4-CF3)]P[Ac5c][NMeGly(cPent)][NMeD]-Morpholide; lactam N-11) | C (A compound having a KD ratio of 0.1 or more and less than 3 is denoted as C) | C (A compound having a KD ratio of 0.1 or more and less than 3 is denoted as C) | –
– | CCC[C@H]1C(=O)N[C@@H]([C@@H](C)CC)C(=O)N(C)CC(=O)N(C)[C@H]2C/C=C\CCN(C2=O)[C@@H](Cc2ccc(C(F)(F)F)cc2)C(=O)N(C)CC(=O)N[C@@H](CCc2ccc(C3CC3)c(OC)c2)C(=O)N2C[C@H](OCC)C[C@H]2C(=O)NC2(CC(C)(C)C2)C(=O)N(C)[C@@H](C2CCCC2)C(=O)N(C)[C@H](C(=O)N(C)C)CC(=O)N1C [PP2853] | A (a compound having 10 or more and less than 20 is denoted as A) | A (a compound having 10 or more and less than 20 is denoted as A) | IC50 ([2]; NCI-H441 cells, 4 days, CellTiter-Glo, read-out: NCl-H441 IC50): 40.2 nM
12.2 nM | CCO[C@@H]1C[C@H]2C(=O)NC3(CCC3)C(=O)N(C)[C@@H](C3CCCC3)C(=O)N(C)[C@H](C(=O)N(C)C)CC(=O)N(C)[C@@H](CC)C(=O)N[C@@H]([C@@H](C)CC)C(=O)N(C)CC(=O)N(C)[C@H]3CCCCN(C3=O)[C@@H](Cc3ccc(C(F)(F)F)cc3)C(=O)N(C)CC(=O)N[C@@H](CCc3cc(Cl)c(C(F)(F)F)c(Cl)c3)C(=O)N2C1 [PP0985] | C (A compound having a KD ratio of 0.1 or more and less than 3 is denoted as C) | C (A compound having a KD ratio of 0.1 or more and less than 3 is denoted as C) | –
4.6 nM | CCO[C@@H]1C[C@H]2C(=O)N(C)C3(CCCC3)C(=O)N(C)[C@@H](C3CCCC3)C(=O)N(C)[C@H](C(=O)N(C)C)CC(=O)N(C)[C@@H](CC)C(=O)N[C@@H]([C@@H](C)CC)C(=O)N3CCC[C@H]3C(=O)N(C)[C@H]3C/C=C\CCN(C3=O)[C@@H](Cc3ccc(C)cc3)C(=O)N(C)CC(=O)N[C@@H](CCc3cc(F)c(C(F)(F)F)c(F)c3)C(=O)N2C1 [PP1810] | – | – | NRAS /KRAS [1, 7]: A (a compound having 10 or more and less than 20 is denoted as A); HRAS /KRAS (HRAS wild-type protein; [8]): B (a compound having 3 or more and less than 10 is denoted as B)
8.9 nM | CC[C@H](C)[C@@H]1NC(=O)[C@H](CC(C)C)N(C)C(=O)C[C@@H](C(=O)N2CCOCC2)N(C)C(=O)[C@H](C2CCCC2)N(C)C(=O)C2(CCCC2)NC(=O)[C@@H]2CCCN2C(=O)[C@H](CCc2ccc(C(F)(F)F)c(Cl)c2)NC(=O)CN(C)C(=O)[C@H](Cc2ccc(Cl)cc2)N2CC=CC[C@@H](C2=O)N(C)C(=O)CN(C)C1=O [PP0533] | – | – | NRAS /KRAS [1, 3]: C (A compound having a KD ratio of 0.1 or more and less than 3 is denoted as C); HRAS /KRAS (HRAS wild-type protein; [4]): C (A compound having a KD ratio of 0.1 or more and less than 3 is denoted as C)
75.9 nM | CCCN1C(=O)[C@@H]2CCN2C(=O)CN(C)C(=O)[C@H]([C@@H](C)CC)NC(=O)[C@H](CC(C)C)N(C)C(=O)C[C@@H](C(=O)N2CCOCC2)NC(=O)[C@H](C2CCCC2)N(C)C(=O)C2(CCCC2)NC(=O)[C@@H]2CCCN2C(=O)[C@H](CCc2ccc(C(F)(F)F)c(Cl)c2)NC(=O)CN(C)C(=O)[C@@H]1Cc1ccc(C(F)(F)F)cc1 [PP0349] ([NMeL]I[Sar][Aze][NPrPhe(4-CF3)][Sar][hPhe(3-Cl-4-CF3)]P[Ac5c][NMeGly(cPent)]D-Morpholide; lactam N-11) | C (A compound having a KD ratio of 0.1 or more and less than 3 is denoted as C) | B (a compound having 3 or more and less than 10 is denoted as B) | –
1820 nM | CC[C@H](C)[C@@H]1NC(=O)[C@H](CC(C)C)N(C)C(=O)C[C@@H](C(=O)N2CCOCC2)N(C)C(=O)[C@H](C2CCCC2)N(C)C(=O)C2(CCOCC2)NC(=O)[C@@H]2CCCN2C(=O)[C@H](CCc2cc(F)c(C(F)(F)F)c(F)c2)NC(=O)CN(C)C(=O)[C@H](Cc2ccc(C(F)(F)F)cc2)N2CCCCC[C@@H](C2=O)N(C)C(=O)CN(C)C1=O [PP0502] | – | – | NRAS /KRAS [1, 3]: A (a compound having 10 or more and less than 20 is denoted as A); HRAS /KRAS (HRAS wild-type protein; [4]): B (a compound having 3 or more and less than 10 is denoted as B)
134 nM | CCO[C@@H]1C[C@H]2C(=O)NC3(CCC3)C(=O)N(C)[C@@H](C3CCCC3)C(=O)N(C)[C@H](C(=O)N(C)CCOC)CC(=O)N(C)[C@@H](CC3CC3)C(=O)N[C@@H]([C@@H](C)CC)C(=O)N(C)CC(=O)N(C)[C@H]3C/C=C\CCN(C3=O)[C@@H](Cc3ccc(C(F)(F)F)cc3)C(=O)N(C)CC(=O)N[C@@H](CCc3ccc4sccc4c3)C(=O)N2C1 [PP1328] | – | – | NRAS /KRAS ([1]; ratio of KD with respect to GDP-bound NRAS wild-type protein to KD with respect to KRAS): A (a compound having 10 or more and less than 20 is denoted as A); HRAS /KRAS (HRAS wild-type protein; ratio of KD with respect to HRAS wild-type protein to KD with respect to KRAS): A (a compound having 10 or more and less than 20 is denoted as A)
23 nM | CC[C@H](C)[C@@H]1NC(=O)[C@H](CC)N(C)C(=O)C[C@@H](C(=O)N(C)CC)N(C)C(=O)[C@H](C2CCCC2)N(C)C(=O)C2(CC(C)(C)C2)NC(=O)[C@@H]2C[C@@H](C)CN2C(=O)[C@H](CCc2ccc(C(F)(F)F)c(Cl)c2)NC(=O)CN(C)C(=O)[C@H](Cc2ccc(C)cc2)N2CC/C=C\C[C@@H](C2=O)N(C)C(=O)CN(C)C1=O [PP1876] | – | – | NRAS /KRAS [1, 7]: A (a compound having 10 or more and less than 20 is denoted as A); HRAS /KRAS (HRAS wild-type protein; [8]): A (a compound having 10 or more and less than 20 is denoted as A)
16.1 nM | C#CC[C@H]1C(=O)N[C@@H]([C@@H](C)CC)C(=O)N(C)CC(=O)N(C)[C@H]2C/C=C\CCN(C2=O)[C@@H](Cc2ccc(C(F)(F)F)cc2)C(=O)N(C)CC(=O)N[C@@H](CCc2ccc(C(F)(F)F)c(OC)c2)C(=O)N2C[C@@H](C)C[C@H]2C(=O)NC2(CC(C)(C)C2)C(=O)N(C)[C@@H](C2CCCC2)C(=O)N(C)[C@H](C(=O)N(C)CC)CC(=O)N1C [PP2055] | – | – | NRAS /KRAS [1, 3]: A (a compound having 10 or more and less than 20 is denoted as A); HRAS /KRAS (HRAS wild-type protein; [4]): B (a compound having 3 or more and less than 10 is denoted as B)
120 nM | CCC[C@H]1C(=O)N[C@@H]([C@@H](C)CC)C(=O)N(C2CC2)CC(=O)N(C)[C@H]2C/C=C\CCN(C2=O)[C@@H](Cc2ccc(C)cc2)C(=O)N(C)CC(=O)N[C@@H](CCc2ccc(C(F)(F)F)c(OC)c2)C(=O)N2C[C@H](OCC)C[C@H]2C(=O)NC2(CC(C)(C)C2)C(=O)N(C)[C@@H](CC2CC2)C(=O)N(C)[C@H](C(=O)N(C)C)CC(=O)N1C [PP2803] | A (a compound having 10 or more and less than 20 is denoted as A) | A (a compound having 10 or more and less than 20 is denoted as A) | –
9.8 nM | CC[C@H](C)[C@@H]1NC(=O)[C@H](CC(C)C)N(C)C(=O)C[C@@H](C(=O)N2CCOCC2)N(C)C(=O)[C@H](C2CCCC2)N(C)C(=O)C2(CCCC2)NC(=O)[C@@H]2C[C@@H](O)CN2C(=O)[C@H](CCc2ccc(C(F)(F)F)c(Cl)c2)NC(=O)CN(C)C(=O)[C@H](Cc2ccc(C)cc2)N(CC)C(=O)[C@@H]2CCN2C(=O)[C@H](C)N(C)C1=O [PP0013] ([NMeL]I[NMeA][Aze][NEtPhe(4-Me)][Sar][hPhe(3-Cl-4-CF3)][Hyp][Ac5c][NMeGly(cPent)][NMeD]-Morpholide; lactam N-11) | C (A compound having a KD ratio of 0.1 or more and less than 3 is denoted as C) | C (A compound having a KD ratio of 0.1 or more and less than 3 is denoted as C) | –
27 nM | CCCO[C@@H]1C[C@H]2C(=O)NC3(CC(C)(C)C3)C(=O)N(C)[C@@H](C3CCCC3)C(=O)N(C)[C@H](C(=O)N(C)CC)CC(=O)N(C)[C@H]3CCCc4ccc(cc4)C[C@@H](C(=O)N(C)CC(=O)N[C@@H](CCc4ccc(Cl)c(Cl)c4)C(=O)N2C1)N1CC/C=C\C[C@@H](C1=O)N(C)C(=O)CN(C)C(=O)[C@H]([C@@H](C)CC)NC3=O [PP3089] | B (a compound having 3 or more and less than 10 is denoted as B) | B (a compound having 3 or more and less than 10 is denoted as B) | –
